# According to patent publication US20100003542A1, “Coating of artificial surfaces of medical aids and instruments, and cleaning and/or pretreatment of catheters and other medical aids and instruments” (BAYER SCHERING PHARMA AKTIENGESSELSCHAFT, priority 2006, published 2010):
# Tested on: intrinsic blood clotting system
# Assay: Determination of the inhibition of contact activation: activated partial thromboplastin time (aPTT) in platelet-poor plasma
# Set-up: species or system human
# Settings: concentration of inhibitor causing twofold prolongation of aPTT; platelet-poor citrate plasma from healthy volunteers; 10 min incubation at 37° C.; PTT reagent (kaolin/cephalin)
# Excerpt: The contact activation can be measured by means of a global plasma clotting test, the activated partial thromboplastin time (aPTT), which detects the effect on factors of the intrinsic blood clotting system.
# The PTT reagent is a mixture of kaolin suspension, that is “silicates”, which mimic the negatively charged foreign surface, and cephalin, that is phospholipids, which are needed as a surface for the conversion of factor XII into factor XIIa. In the presence of a foreign surface, phospholipid and Ca^2+, factor XII is converted to factor XIIa.
# This PTT reagent is added to specially prepared plasma (see examples). The clotting is triggered when the necessary calcium^2+ ions are present, i.e. by addition of a calcium dichloride solution. The time between calcium^2+ addition and the onset of clotting is then measured, and the concentration of inhibitor [in μM] which causes a twofold prolongation of the aPTT is stated.
# The contact activation is determined by determination of the partial thromboplastin time. The test principle is as follows: the plasma sample is treated with a mixture of the partial thromboplastin cephalin (phospholipid from rabbit brain) and the surface activator kaolin. The contact activation of the intrinsic clotting system up to fibrin formation is thus set in motion.
# For the determination of the partial thromboplastin time, blood from healthy volunteers of both sexes, who had not received any medication affecting clotting within the last ten days, was used. The blood is collected in Monovettes (Sarstedt, Nümbrecht) which contain sodium citrate (1 part citrate+9 parts blood) as anticoagulant. To obtain platelet-poor plasma, the citrate (3.8%) whole blood is centrifuged at 2500 g for 10 min at 4° C. and stored at −20° C. For the determination of the clotting time, aliquots of the platelet-poor plasma (0.1 ml) are incubated with increasing concentrations of test substance or the corresponding solvent for 10 mins at 37° C. Next, the clotting time is determined in accordance with the manufacturer's directions (PTT Reagent®, Roche Diagnostics). For this the procedure is as follows: 0.1 ml of PTT reagent is pipetted into the plasma, and the sample incubated for three minutes at 37° C. The clotting is then triggered in a coagulometer by addition of 0.1 ml of calcium chloride solution and the time to onset of clotting is measured. In this manner, the 2-fold prolongation of the aPTT is determined for selected compounds.
row,SMILES,Twofold prolongation of the aPTT
1,O=C(NC[C@H]1CN(c2ccc(N3CCCC3=O)cc2)C(=O)O1)c1ccc(Br)s1 [Example 56],4.3 µM
2,O=C(NC[C@H]1CN(c2ccc(N3CCOCC3=O)c(F)c2)C(=O)O1)c1ccc(Cl)s1 [Example 130a],0.4 µM
3,O=C(NC[C@H]1CN(c2ccc(N3CCCCC3=O)cc2)C(=O)O1)c1ccc(Cl)s1 [Example 162],2.5 µM
4,Cc1cc(N2CC(CNC(=O)c3ccc(Cl)s3)OC2=O)ccc1N1CCOCC1=O (centres unmarked) [Example 115],1.34 µM
5,"O=C(NC[C@H]1CN(c2ccc(N3CCOCC3=O)cc2)C(=O)O1)c1ccc(Cl)s1 [Example 44, 5-chloro-N-({(5S)-2-oxo-3-[4-(3-oxo-4-morpholinyl)phenyl]-1,3-oxazolidin-5-yl}methyl)-2-thiophencarboxamide]",0.69 µM
6,O=C(NC[C@H]1CN(c2ccc(N3CCCC3=O)cc2)C(=O)O1)c1ccc(Cl)s1 [Example 17],1.8 µM
7,Nc1cc(N2CC(CNC(=O)c3ccc(Cl)s3)OC2=O)ccc1N1CCOCC1=O (centres unmarked) [Example 123],1.22 µM
8,O=C(NCC1CN(c2ccc(N3CCOCC3=O)c(F)c2)C(=O)O1)c1ccc(Cl)s1 (centres unmarked) [Example 95],0.51 µM
9,O=C(NCC1CN(c2ccc(N3CCOCC3=O)c(Cl)c2)C(=O)O1)c1ccc(Cl)s1 (centres unmarked) [Example 113],0.55 µM
10,O=C(NCC1CN(c2ccc(N3CCOCC3=O)c(C(F)(F)F)c2)C(=O)O1)c1ccc(Cl)s1 (centres unmarked) [Example 114],2.2 µM
11,O=C(NCC1CN(c2ccc(N3CCCC3=O)c(C(F)(F)F)c2)C(=O)O1)c1ccc(Cl)s1 (centres unmarked) [Example 112],1.6 µM
